Key:
[1] = target: T1, calpain-I isolated from human erythrocytes (Homo sapiens, UniProt P07384); assay: Calpain I enzyme inhibition in vitro (kinetic fluorescence assay); assay type: biochemical; details: apparent Ki from IC50 (Cheng-Prussoff); 20 nM calpain-I, 100 μM Suc-Leu-Tyr-AMC, pH 7.3, room temperature
T1 construct: calpain-I—isolated from human erythrocytes; purchased Calbiochem 208713; host or cells: human erythrocytes (tissue-derived)
T1 sequence (P07384 1-714): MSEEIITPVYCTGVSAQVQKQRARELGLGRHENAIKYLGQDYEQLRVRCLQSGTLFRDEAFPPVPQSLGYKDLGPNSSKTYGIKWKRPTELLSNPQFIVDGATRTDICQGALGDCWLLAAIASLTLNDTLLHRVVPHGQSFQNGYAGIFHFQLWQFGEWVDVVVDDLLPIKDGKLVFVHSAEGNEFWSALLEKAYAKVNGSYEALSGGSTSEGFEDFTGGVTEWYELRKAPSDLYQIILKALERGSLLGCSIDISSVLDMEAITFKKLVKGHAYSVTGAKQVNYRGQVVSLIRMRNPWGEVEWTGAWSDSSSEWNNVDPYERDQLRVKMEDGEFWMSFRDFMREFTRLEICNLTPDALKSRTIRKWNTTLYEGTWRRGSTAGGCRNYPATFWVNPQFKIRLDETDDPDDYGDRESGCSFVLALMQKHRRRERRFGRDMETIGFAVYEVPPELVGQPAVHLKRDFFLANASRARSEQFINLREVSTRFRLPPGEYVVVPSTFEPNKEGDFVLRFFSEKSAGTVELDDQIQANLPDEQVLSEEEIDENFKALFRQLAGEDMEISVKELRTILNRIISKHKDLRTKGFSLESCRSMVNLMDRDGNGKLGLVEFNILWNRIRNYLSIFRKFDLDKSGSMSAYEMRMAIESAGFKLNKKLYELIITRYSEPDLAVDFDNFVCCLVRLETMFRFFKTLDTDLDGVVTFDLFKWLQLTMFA
T1 sequence (P04632 1-268 partner): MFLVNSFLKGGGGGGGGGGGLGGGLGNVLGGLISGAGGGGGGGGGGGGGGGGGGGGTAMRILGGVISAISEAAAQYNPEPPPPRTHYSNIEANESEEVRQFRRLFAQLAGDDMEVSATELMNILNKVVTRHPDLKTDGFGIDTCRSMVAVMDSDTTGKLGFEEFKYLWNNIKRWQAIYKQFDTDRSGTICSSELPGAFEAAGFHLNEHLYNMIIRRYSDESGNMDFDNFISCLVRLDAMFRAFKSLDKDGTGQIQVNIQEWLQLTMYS
Summary of the method: (§1)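 Kinetic AMC fluorescence (ex 390/em 460 nm), room temperature. Calpain-I 20 nM, 100 μM Suc-Leu-Tyr-AMC, imidazole/CaCl2 pH 7.3; cathepsins B 0.25 nM/100 μM Z-Phe-Arg-AMC, K 3 nM/10 μM Z-Gly-Pro-Arg-AMC, S 0.5 nM/20 μM Z-Val-Val-Arg-AMC, each MES/EDTA/cysteine pH 6.0. Ki from IC50 via Cheng-Prusoff, averaging 2–4 curves.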

[2] = target: T2, cathepsin B isolated from human liver (Homo sapiens, UniProt P07858); assay: Cathepsin B enzyme inhibition in vitro (kinetic fluorescence assay); assay type: biochemical; details: Ki(cathepsin B)/Ki(calpain) ratio
T2 construct: cathepsin B—isolated from human liver; purchased Calbiochem 219362; host or cells: human liver (tissue-derived)
Summary of the method: as §1

[3] = target: T3, recombinant human cathepsin S (Homo sapiens, UniProt P25774); assay: Cathepsin S enzyme inhibition in vitro (kinetic fluorescence assay); assay type: biochemical; details: Ki(cathepsin S)/Ki(calpain) ratio
T3 construct: purchased Calbiochem 219343; host or cells: E. coli
T3 sequence (P25774 115-331): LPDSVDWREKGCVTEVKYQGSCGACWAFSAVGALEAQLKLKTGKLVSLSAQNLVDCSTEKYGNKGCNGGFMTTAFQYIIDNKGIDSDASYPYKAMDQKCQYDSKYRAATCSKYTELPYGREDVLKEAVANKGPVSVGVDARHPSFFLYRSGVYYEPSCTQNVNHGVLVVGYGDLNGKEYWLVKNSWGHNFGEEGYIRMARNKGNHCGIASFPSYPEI
Summary of the method: as §1

[4] = target: T4, cathepsin L isolated from human liver (Homo sapiens, UniProt P07711); assay: Cathepsin L enzyme inhibition in vitro (kinetic fluorescence assay); assay type: biochemical; details: Ki(cathepsin L)/Ki(calpain) ratio
T4 construct: cathepsin L—isolated from human liver; purchased Calbiochem 219402; host or cells: human liver (tissue-derived)
T4 sequence (P07711 114-333): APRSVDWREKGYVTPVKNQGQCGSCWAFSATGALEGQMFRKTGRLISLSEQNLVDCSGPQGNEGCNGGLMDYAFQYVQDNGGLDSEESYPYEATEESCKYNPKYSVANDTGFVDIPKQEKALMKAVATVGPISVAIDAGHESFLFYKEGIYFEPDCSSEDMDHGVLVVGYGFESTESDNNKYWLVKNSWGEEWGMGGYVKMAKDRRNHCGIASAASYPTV
Summary of the method: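 Inhibition of cathepsin L isolated from human liver was measured by kinetic fluorescence (excitation 390 nm, emission 460 nm) using 1 nM enzyme and 2 μM Z-Phe-Arg-AMC substrate (Km 2 μM) in 50 mM MES, 2 mM EDTA, 0.05% Brij 35, 2.5 mM L-cysteine, pH 6.0, at room temperature. Apparent Ki values came from IC50 values via the Cheng-Prussoff relation, averaged over 2 to 4 dose-effect plots.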

[5] = Assay for determining cytosolic clearance, cynomolgus monkey liver cytosol; assay type: in vitro ADME; details: 0.5 μM compound, 1 mg/ml cynomolgus monkey liver cytosol, 37° C., pH 7.5
Protocol: (§2) For comparison purposes data measured with human liver cytosol were contrasted with those obtained with cynomolgus monkey liver cytosol.
(§3) 0.5 μM of a compound to be tested was incubated with 1 mg/ml of human liver cytosol as well as monkey liver cytosol at 37° C. in 0.5 M of phosphate buffer at pH 7.5 while shaking (commercial sources: female cynomolgus liver cytosol from Tebu bio, human liver cytosol from BDgentest).
(§4) In each case aliquots of 65 μl were taken after 0, 5, 10 and 15 min and transferred into wells of a wellplate which were immediately filled with 130 μl of ethanol to stop the reaction. The samples were kept frozen until analysis on a LC/MS/MS system (Applied Biosystems SCIEX 4000).
(§5) Read out parameters were the loss of parent compounds, from which the half life periods (T1/2) were calculated from.
(§6) To assess the stability of the compounds tested the clearance ranges were adjusted to the hepatic plasma flow of the different species according to the following scheme:
(§7) stable=from 0 to about ⅓ of the hepatic plasma flow;
(§8) moderately stable=from about ⅓ to about ⅔ of the hepatic plasma flow;
(§9) instable=more than ⅔ of the hepatic plasma flow.
(§10) Based on this adjustment the following qualifiers were assigned to evaluate the cytosolic stabilities of the compounds tested: […]

[6] = Assay for determining cytosolic clearance, human liver cytosol; assay type: in vitro ADME; details: 0.5 μM compound, 1 mg/ml human liver cytosol, 37° C., pH 7.5
Protocol: as §2, §3, §4, §5, §6, §7, §8, §9, §10

[7] = target: T5, cathepsin K activated from recombinant human procathepsin K (Homo sapiens, UniProt P43235); assay: Cathepsin K enzyme inhibition in vitro (kinetic fluorescence assay); assay type: biochemical; details: Ki(cathepsin K)/Ki(calpain) ratio
T5 construct: purchased Calbiochem 342001; host or cells: E. coli
T5 sequence (P43235 115-329): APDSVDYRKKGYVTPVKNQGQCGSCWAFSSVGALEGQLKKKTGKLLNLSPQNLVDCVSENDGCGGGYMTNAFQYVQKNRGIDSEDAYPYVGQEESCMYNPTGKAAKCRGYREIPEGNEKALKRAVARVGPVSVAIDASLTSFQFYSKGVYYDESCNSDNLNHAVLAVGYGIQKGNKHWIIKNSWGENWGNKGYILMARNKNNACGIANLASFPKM
Summary of the method: as §1

For `CCNC(=O)C(=O)C(Cc1ccccc1)NC(=O)[C@H]1CCC(=O)N1Cc1ccccc1` (stereo partly drawn) [Example 21, (2R)-1-Benzyl-N-[4-(ethylamino)-3,4-dioxo-1-phenylbutan-2-yl]-5-oxopyrrolidine-2-carboxamide], the Ki [1] was 100 to 600 nM, the “Sel cat. B” value [2] was “+++ (Ki(cathepsin B)/Ki(calpain) ratio of >30)” and the “Sel cat. S” value [3] was “++ (30<Ki(cathepsin B)/Ki(calpain)≦100)”. For the same molecule, the “Sel cat. L” value [4] was “+++ (Ki(cathepsin L)/Ki(calpain) ratio of >30)”, the “cyno cytCL” value [5] was “++ (0-18 μl/min/mg)” and the “human cytCL” value [6] was “++ (0-14 μl/min/mg)”. The “Sel cat. K” value [7] was “+++ (Ki(cathepsin K)/Ki(calpain) ratio of >30)”.

In the case of `O=C(NCc1ccccn1)C(=O)C(Cc1ccccc1)NC(=O)[C@H]1CCC(=O)N1Cc1ccccc1` (stereo partly drawn) [Example 20, (2R)-1-Benzyl-N-{3,4-dioxo-1-phenyl-4-[(pyridin-2-ylmethyl)amino]butan-2-yl}-5-oxopyrrolidine-2-carboxamide], the Ki [1] is reported as 50 to 100 nM, the “Sel cat. B” value [2] is reported as “+++ (Ki(cathepsin B)/Ki(calpain) ratio of >30)” and the “Sel cat. S” value [3] is reported as “+++ (Ki(cathepsin S)/Ki(calpain) ratio of >100)”. The “Sel cat. L” value [4] was “++ (10<Ki(cathepsin B)/Ki(calpain)≦30)”, the “cyno cytCL” value [5] was “++ (0-18 μl/min/mg)” and the “human cytCL” value [6] was “++ (0-14 μl/min/mg)”. For the same molecule, the “Sel cat. K” value [7] was “+++ (Ki(cathepsin K)/Ki(calpain) ratio of >30)”.

— patent publication US9018206B2, “Carboxamide compounds and their use as calpain inhibitors” (AbbVie Deutschland GmbH & Co. KG, priority 2009, dated 2015)
